From patent publication US5739319A, “Phthalocyanine or naphthalocyanine derivative” (Orient Chemical Industries, Ltd., priority 1995, dated 1998)

Columns and labels:
[1] = background statement, in words; cited from earlier work
[2] = Solubility at room temperature; format: physicochemical; conditions: for Solubility, Acetone: in words
Protocol: Then, solubility at room temperature of the resulting compound is measured.

## C.I. Solvent Blue-70
[1]
  solubility in an organic solvent: soluble in an organic solvent

## Tetrasulfonic acid copper phthalocyanine [C.I. Acid Blue-249]
[1]
  water-solubility: insufficient

## tetrakis(sulfobenzamide) copper naphthalocyanine [Example 5]
[2]
  Solubility, DMF: > 2.0%
  Solubility, Acetone: insoluble
  Solubility, Dilute aqueous alkaline solution: < 1.5%
  Solubility, Methanol: < 0.1%

## tetrakis(sulfobenzamide) copper phthalocyanine [Example 1]
[2]
  Solubility, Acetone: insoluble
  Solubility, Methanol: > 5%
  Solubility, Water: > 10%

## tetrakis(sulfobenzamide) nickel naphthalocyanine [Example 4]
[2]
  Solubility, DMF: > 2.0%
  Solubility, Acetone: insoluble
  Solubility, Dilute aqueous alkaline solution: < 1.5%
  Solubility, Methanol: < 0.1%

## tetrakis(sulfobenzamide) phthalocyanine [Example 2]
[2]
  Solubility, Acetone: insoluble
  Solubility, Methanol: > 5%
  Solubility, Water: > 10%
